According to patent US9006210B2, “Compositions and methods for treating corneal inflammation” (Case Western Reserve University, priority 2008, dated 2015):
“Also recorded” adds a separate entry of the source.

Columns and labels:
[1] = test system: Gram negative Lipid A; conditions: cited from earlier work
[2] = target: T1, TLR4 (Mus musculus, UniProt Q9JHF9+Q9QUK6); set-up: species or system C57BL/6 mice; conditions: in vivo
T1 construct: Corneas of C57BL/6 mice were abraded with three parallel, superficial scratches; from tissue; host or cells: cornea of living C57BL/6 mice
T1 sequence (Q9QUK6 26-835): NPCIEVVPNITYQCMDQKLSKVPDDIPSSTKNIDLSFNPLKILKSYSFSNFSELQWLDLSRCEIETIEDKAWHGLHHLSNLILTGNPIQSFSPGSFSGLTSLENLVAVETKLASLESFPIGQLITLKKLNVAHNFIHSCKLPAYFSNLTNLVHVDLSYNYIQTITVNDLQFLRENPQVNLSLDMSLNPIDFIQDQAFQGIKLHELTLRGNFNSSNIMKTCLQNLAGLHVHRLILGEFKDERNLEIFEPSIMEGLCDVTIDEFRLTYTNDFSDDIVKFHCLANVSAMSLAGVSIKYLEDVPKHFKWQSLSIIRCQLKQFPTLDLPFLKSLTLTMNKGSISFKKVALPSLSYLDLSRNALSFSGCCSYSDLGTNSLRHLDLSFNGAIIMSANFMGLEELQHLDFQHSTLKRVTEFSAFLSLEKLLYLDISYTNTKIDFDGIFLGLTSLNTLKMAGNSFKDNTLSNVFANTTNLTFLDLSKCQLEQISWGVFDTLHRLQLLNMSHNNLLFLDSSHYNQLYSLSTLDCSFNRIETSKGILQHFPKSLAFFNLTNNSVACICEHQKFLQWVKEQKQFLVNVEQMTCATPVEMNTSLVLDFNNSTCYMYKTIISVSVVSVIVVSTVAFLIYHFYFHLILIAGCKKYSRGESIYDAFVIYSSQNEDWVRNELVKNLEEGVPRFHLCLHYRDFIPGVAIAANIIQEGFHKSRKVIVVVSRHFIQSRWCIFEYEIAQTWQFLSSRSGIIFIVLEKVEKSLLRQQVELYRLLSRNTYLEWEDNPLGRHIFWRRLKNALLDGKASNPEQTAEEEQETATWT
T1 sequence (Q9JHF9 19-160): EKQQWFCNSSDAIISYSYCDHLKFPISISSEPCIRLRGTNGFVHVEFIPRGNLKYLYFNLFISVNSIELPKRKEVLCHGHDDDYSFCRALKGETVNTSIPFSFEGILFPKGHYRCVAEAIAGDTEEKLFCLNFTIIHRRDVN
Experimental: (§5) C57BL/6 mice (6-8 weeks old) were obtained from The Jackson Laboratory (Bar Harbor, Me.). Mice were anesthetized by intraperitoneal injection of 0.4 ml 2,2,2-tribromoethanol (TBE). A 26 gauge needle was used to make three parallel abrasions in the corneal epithelium as described in our previous studies. Eritoran tetrasodium or placebo at concentrations indicated for each experiment was added topically, and a 2 mm diameter punch from a normal contact lens (LOTRAFILCON A; CIBA VISION) was added to the corneal surface (See FIG. 1). After an additional 1 h, the lens was briefly removed, and 2 μl LPS (20 mg/ml) or Pam3Cys (5 mg/ml) was placed on the corneal surface. The contact lens button was then replaced, and after an additional 1 h, the lens was removed and the mice were allowed to recover from anesthesia. In some experiments, the order of agonist and antagonist was reversed, or both were given simultaneously.
Briefly, Corneas of C57BL/6 mice were abraded with three parallel, superficial scratches. 2 μl of 350 mg/ml Eritoran or placebo was added topically, and a 2 mm diameter punch from a soft contact lens was placed on the corneal surface as shown in FIG. 1. […] After 1 h, the lens was removed, and 3 h later (4 h after stimulation), and corneas were dissected, homogenized, and CXCL1/KC was measured by ELISA.

[3] = target: T2, TLR2 (Mus musculus, UniProt Q9QUN7); test: Pam3Cys-induced CXCL1/KC production in the cornea, mouse contact lens model; type: in vivo, C57BL/6 mice; conditions: topical pre-treatment 1 h before Pam3Cys; ELISA 4 h after stimulation; vs placebo
T2 construct: Corneas of C57BL/6 mice were abraded with three parallel, superficial scratches; from tissue; host or cells: cornea of living C57BL/6 mice
Experimental: as §5
Briefly, Corneas of C57BL/6 mice were abraded with three parallel, superficial scratches. 2 μl of 350 mg/ml Eritoran or placebo was added topically, and a 2 mm diameter punch from a soft contact lens was placed on the corneal surface as shown in FIG. 1. […] After 1 h, the lens was removed, and 3 h later (4 h after stimulation), and corneas were dissected, homogenized, and CXCL1/KC was measured by ELISA. […]

[4] = target: T1, TLR4; set-up: species or system C57BL/6 mice; conditions: in vivo; remark: listed apart in the source
[5] = target: T2, TLR2; test: Pam3Cys-induced contact lens corneal inflammation (neutrophil infiltrate, reflectivity); type: in vivo, C57BL/6 mice
[6] = test system: corneal epithelium
Experimental: The cell viability in vitro was measured by trypan blue. The corneal sections were incubated with terminal deoxynucleotidyl transferase-mediated dUTP nick end labeling (TUNEL) reagents according to manufacturer's directions (Roche, Penzberg, Germany), and the number of TUNEL positive cells in the cornea was quantified by fluorescence microscopy.
Mice were pre-treated with 2.2 μg eritoran tetrasodium prior to LPS, as described above, and eyes were snap frozen. We used a TUNEL assay on 5 μm corneal sections to identify apoptotic cells. Total cells were identified using DAPI.

[7] = target: T3, TLR2 (Homo sapiens, UniProt O60603); test: Pam3Cys-induced IL-8 production by human corneal epithelial cells (HCE-T); type: cell-based; conditions: 500 ng/ml Pam3Cys, 24 h
T3 construct: endogenous in cells; host or cells: HCE-T human corneal epithelial cell line (ATCC)
Experimental: (§1) The SV-40 transfected human corneal epithelial cell line (HCE-T) was obtained from ATCC. Before stimulation, HCE cells were plated into 48 well plates and underwent epidermal growth factor starvation overnight. As HCE cells require exogenous MD-2 to respond to LPS, cells were incubated 1 h with 200 ng/ml recombinant human MD-2 (R&D Systems, Minneapolis, Minn.) prior to stimulation with ultrapure LPS (TLR4-specific, Escherichia coli K12, Invivogen; San Diego, Calif.). HCE cells were also incubated with Pam3CysK4 (EMC Microcollections, Germany) in the absence of MD-2.
(§2) All cells were incubated with eritoran or placebo, followed by stimulation with LPS or Pam3CysK4 at optimal concentrations for each cells line (noted in results). After 3 h, cell-free supernatants were collected, and CXCL8/IL-8 was measured by ELISA (R&D Systems).
Cell lines derived from human corneal epithelial cells (HCE-T), macrophages (U937) and neutrophils (HL-60) were stimulated with LPS or Pam3Cys in the presence of eritoran tetrasodium or placebo. After 3 h (U937 and HL-60 cells) or 24 h (HCE-T cell), IL-8 levels in culture supernatants were quantified by ELISA. […] FIGS. 16 and 17 show macrophages stimulated with 10 ng/ml LPS or 500 ng/ml Pam3Cys in the presence of Eritoran or placebo. FIGS. 18 and 19 show neutrophils stimulated with 1 ng/ml LPS or 500 ng/ml Pam3Cys and Eritoran or placebo. […]

[8] = target: T3, TLR2; test: Pam3Cys-induced IL-8 production by macrophages (U937); type: cell-based; conditions: 500 ng/ml Pam3Cys, 3 h
Experimental: (§3) The U937 macrophage-cell line was cultured in RPMI medium (GIBCO) with 10% FBS, and 5×10^4 cells/well were added to 96-well plates. The human neutrophil-like cell line (HL-60) was maintained in RPMI with 10% FBS, and incubated five days in 1.2% DMSO to generate the neutrophil phenotype.
as §2
(§4) Cell lines derived from human corneal epithelial cells (HCE-T), macrophages (U937) and neutrophils (HL-60) were stimulated with LPS or Pam3Cys in the presence of eritoran tetrasodium or placebo. After 3 h (U937 and HL-60 cells) or 24 h (HCE-T cell), IL-8 levels in culture supernatants were quantified by ELISA. […] FIGS. 16 and 17 show macrophages stimulated with 10 ng/ml LPS or 500 ng/ml Pam3Cys in the presence of Eritoran or placebo. FIGS. 18 and 19 show neutrophils stimulated with 1 ng/ml LPS or 500 ng/ml Pam3Cys and Eritoran or placebo. LPS concentrations were based on preliminary data showing optimal IL-8 production. […] Graphs are mean+/−SEM of three wells per sample. Experiments were repeated three times with similar results.

[9] = target: T3, TLR2; test: Pam3Cys-induced IL-8 production by neutrophils (HL-60); type: cell-based; conditions: HL-60 neutrophils; 500 ng/ml Pam3Cys; 3 h
Experimental: as §3, §2, §4

[10] = target: T4, TLR4/MD-2 (Mus musculus, UniProt Q9JHF9+Q9QUK6); set-up: species or system C57BL/6 mice; conditions: in vivo
T4 construct: from tissue; host or cells: cornea of living C57BL/6 mice
T4 sequence (Q9QUK6 26-835): T1 sequence (Q9QUK6 26-835)
T4 sequence (Q9JHF9 19-160): T1 sequence (Q9JHF9 19-160)

[11] = target: T5, TLR4 (Homo sapiens, UniProt O00206+Q9Y6Y9); test: LPS-induced IL-8 production by macrophages (U937); type: cell-based; set-up: endogenous in cells; conditions: for LPS-induced IL-8 production: U937 macrophages, 10 ng/ml LPS, 3 h
Experimental: as §3, §2, §4

[12] = target: T5, TLR4; test: LPS-induced IL-8 production by human corneal epithelial cells (HCE-T); type: cell-based; set-up: endogenous in cells; host or cells: HL-60 (five days in 1.2% DMSO); conditions: for LPS-induced IL-8 production: HCE-T cells, 900 ng/ml LPS with 0.2 μg/ml MD-2, 24 h, ELISA
Experimental: as §1, §2, §4

[13] = target: T5, TLR4; test: LPS-induced IL-8 production by neutrophils (HL-60); type: cell-based; set-up: endogenous in cells; host or cells: HL-60 (five days in 1.2% DMSO); conditions: for LPS-induced IL-8 production: HL-60 neutrophils, 1 ng/ml LPS, 3 h
Experimental: as §3, §2, §4

[14] = pretreatment with the highest concentration, Pam3Cys stimulation

T5 sequence (O00206 24-839): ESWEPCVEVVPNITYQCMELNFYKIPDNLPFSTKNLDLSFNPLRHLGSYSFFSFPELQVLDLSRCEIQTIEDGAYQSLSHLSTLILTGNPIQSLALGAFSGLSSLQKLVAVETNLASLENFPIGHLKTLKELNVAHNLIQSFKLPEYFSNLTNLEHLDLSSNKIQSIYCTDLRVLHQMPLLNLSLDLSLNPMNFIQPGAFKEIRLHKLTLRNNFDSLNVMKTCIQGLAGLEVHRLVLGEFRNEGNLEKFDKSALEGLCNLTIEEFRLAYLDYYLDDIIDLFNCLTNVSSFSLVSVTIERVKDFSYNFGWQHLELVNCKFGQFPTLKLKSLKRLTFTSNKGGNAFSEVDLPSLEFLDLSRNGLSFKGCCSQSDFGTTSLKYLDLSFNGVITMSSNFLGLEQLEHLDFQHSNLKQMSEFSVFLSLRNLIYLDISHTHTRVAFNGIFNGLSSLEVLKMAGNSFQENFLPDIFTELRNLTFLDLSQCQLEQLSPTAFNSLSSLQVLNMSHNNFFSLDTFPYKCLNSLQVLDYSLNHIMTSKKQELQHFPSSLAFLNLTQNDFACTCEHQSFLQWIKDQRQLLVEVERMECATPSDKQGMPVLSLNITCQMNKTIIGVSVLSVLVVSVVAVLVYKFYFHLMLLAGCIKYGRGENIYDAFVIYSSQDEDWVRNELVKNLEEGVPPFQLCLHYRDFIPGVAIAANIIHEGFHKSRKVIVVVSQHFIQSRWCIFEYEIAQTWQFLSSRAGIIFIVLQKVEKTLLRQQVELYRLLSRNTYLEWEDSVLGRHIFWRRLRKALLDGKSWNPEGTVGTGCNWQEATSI
T5 sequence (Q9Y6Y9 19-160): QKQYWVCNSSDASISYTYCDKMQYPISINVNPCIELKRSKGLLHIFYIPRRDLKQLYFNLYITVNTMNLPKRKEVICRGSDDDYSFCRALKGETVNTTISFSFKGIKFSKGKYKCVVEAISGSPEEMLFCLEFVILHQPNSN
T3 sequence (O60603 21-784): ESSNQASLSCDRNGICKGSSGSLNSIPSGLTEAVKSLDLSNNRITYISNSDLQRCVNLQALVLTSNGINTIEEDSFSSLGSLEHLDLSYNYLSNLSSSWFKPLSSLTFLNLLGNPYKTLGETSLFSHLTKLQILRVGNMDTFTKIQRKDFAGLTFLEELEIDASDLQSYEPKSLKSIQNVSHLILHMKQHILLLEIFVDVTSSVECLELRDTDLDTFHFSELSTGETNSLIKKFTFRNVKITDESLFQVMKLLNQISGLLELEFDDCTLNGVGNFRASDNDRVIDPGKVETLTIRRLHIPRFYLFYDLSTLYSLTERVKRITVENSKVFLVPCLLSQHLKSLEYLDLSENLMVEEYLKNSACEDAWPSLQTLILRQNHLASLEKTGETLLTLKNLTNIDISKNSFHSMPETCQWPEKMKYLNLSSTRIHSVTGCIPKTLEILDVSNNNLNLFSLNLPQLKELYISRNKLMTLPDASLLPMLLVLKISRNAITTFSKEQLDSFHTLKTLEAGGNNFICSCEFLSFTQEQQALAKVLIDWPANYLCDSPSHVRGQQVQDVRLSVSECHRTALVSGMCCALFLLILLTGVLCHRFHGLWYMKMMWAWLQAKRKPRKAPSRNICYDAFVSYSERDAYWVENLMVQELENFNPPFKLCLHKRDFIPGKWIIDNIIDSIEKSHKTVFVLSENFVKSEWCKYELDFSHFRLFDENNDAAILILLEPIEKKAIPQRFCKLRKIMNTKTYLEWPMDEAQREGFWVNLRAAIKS
T2 sequence (Q9QUN7 25-784): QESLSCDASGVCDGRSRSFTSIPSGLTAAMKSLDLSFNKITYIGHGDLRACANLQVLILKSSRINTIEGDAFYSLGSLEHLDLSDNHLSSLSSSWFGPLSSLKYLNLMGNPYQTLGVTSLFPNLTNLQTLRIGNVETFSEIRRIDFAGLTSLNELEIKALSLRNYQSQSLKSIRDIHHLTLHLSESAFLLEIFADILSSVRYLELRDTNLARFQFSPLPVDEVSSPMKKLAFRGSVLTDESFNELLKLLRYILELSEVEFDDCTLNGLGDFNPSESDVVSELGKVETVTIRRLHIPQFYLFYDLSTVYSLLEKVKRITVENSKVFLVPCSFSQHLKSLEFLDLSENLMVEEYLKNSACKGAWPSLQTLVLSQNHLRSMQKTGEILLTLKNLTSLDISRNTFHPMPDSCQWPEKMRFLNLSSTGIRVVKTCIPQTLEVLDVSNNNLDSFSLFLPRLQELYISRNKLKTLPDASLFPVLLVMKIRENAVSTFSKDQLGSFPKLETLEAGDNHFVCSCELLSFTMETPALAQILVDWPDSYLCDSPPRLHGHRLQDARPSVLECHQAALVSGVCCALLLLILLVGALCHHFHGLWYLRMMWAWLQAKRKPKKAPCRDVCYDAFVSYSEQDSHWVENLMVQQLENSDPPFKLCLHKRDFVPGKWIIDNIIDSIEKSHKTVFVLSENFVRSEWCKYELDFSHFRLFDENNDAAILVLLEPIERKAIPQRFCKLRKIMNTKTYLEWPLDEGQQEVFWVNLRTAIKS

## Rhodobacter sphaeroides lipid A [RSLA]
[1]
  antagonistic activity for other Gram negative Lipid A: pronounced antagonistic activity
[1]; on some cell types
  agonist activity: only minor agonist activity

## CCCCCC/C=C\CCCCCCCCCC(=O)N[C@H]1[C@H](OC[C@H]2O[C@H](OP(=O)([O-])[O-])[C@H](NC(=O)CC(=O)CCCCCCCCCCC)[C@@H](OCCCCCCCCCC)[C@@H]2O)O[C@H](COC)[C@@H](OP(=O)([O-])[O-])[C@@H]1OCC[C@@H](CCCCCCC)OC.[Na+].[Na+].[Na+].[Na+] [eritoran tetrasodium]
[2]
  CXCL1/KC in LPS-stimulated corneas: significantly inhibited
[3]
  CXCL1/KC in Pam3Cys-stimulated corneas: no difference
[4]
  LPS-induced corneal haze: significantly reduced
  LPS-induced neutrophil infiltration: significantly inhibited; also recorded: significantly reduced
  cellular infiltrate in the central corneal stroma: minimal cellular infiltrate
  concentration needed to reduce neutrophil numbers by 50%: 0.35 mg/mL
  effect on neutrophil numbers at concentrations lower than 1.1 mg/ml: no significant effect
  minimum inhibitory concentration: 350 µg/mL
  neutrophil numbers per corneal section: dose-dependent reduction
  second application after 3 h versus single treatment: no significant difference
[5]; [14]
  neutrophil infiltration: no effect
  total reflectivity: no effect
[5]; topical pre-treatment
  Pam3Cys/TLR2-induced corneal inflammation: no effect
[6]; 2.2 μg prior to LPS, presence or absence of LPS
  TUNEL positive cells in the corneal epithelium: no TUNEL positive cells
[6]; 2.2 μg, corneal epithelium
  pro-apoptotic effect: no pro-apoptotic effect
[7]
  Pam3Cys-induced IL-8 production: no effect
[8]
  Pam3Cys-induced IL-8 production: no effect
[9]
  Pam3Cys-induced IL-8 production: no effect
[10]
  corneal haze: significantly inhibited
  corneal thickness: significantly inhibited
  neutrophil infiltration: significantly inhibited
[11]
  LPS-induced IL-8 production: significantly reduced
[11]; listed as Eritoran
  LPS-induced IL-8 production: dose dependent inhibition
[11]; macrophage cell line (U937)
  concentration that inhibited LPS-induced IL-8: 1 ng/mL
[12]
  LPS-induced IL-8 production: significantly reduced
[12]; listed as Eritoran
  LPS-induced IL-8 production: dose dependent inhibition
[12]; human corneal epithelial cells with exogenous MD-2
  dose required to inhibit LPS-induced IL-8, relative to macrophage and neutrophil lines: required higher doses
[13]
  LPS-induced IL-8 production: significantly reduced
[13]; listed as Eritoran
  LPS-induced IL-8 production: dose dependent inhibition
[13]; neutrophil cell line (HL-60)
  concentration that inhibited LPS-induced IL-8: 1 ng/mL
